Key:
Assay in all cases: relative viability (nuclei count vs DMSO), 5 days (fraction); higher = more cells survive
BI-D1870 + Dasatinib = compound: CC(C)CCN1c2nc(Nc3cc(F)c(O)c(F)c3)ncc2N(C)C(=O)C1C [BI-D1870] + Cc1nc(Nc2ncc(C(=O)Nc3c(C)cccc3Cl)s2)cc(N2CCN(CCO)CC2)n1 [Dasatinib] (partner 0.075 µM)
In short: (§1)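 After 5 days of treatment, lung cancer cells in 1536-well plates were fixed and stained in a single step (final 0.05% Triton X-100, 1% formaldehyde, 1 ug/ml Hoechst) and their nuclei counted on 4× images. Treatment had been applied by pin tool the day after seeding as one drug alone or as a fixed anchor-drug dose with five library-drug doses (not always all listed) in √10 steps. Relative viability is the nuclei count of treated wells divided by that of vehicle wells, and values are medians of duplicate plates.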

Zebularine + Trametinib = compound: O=c1ncccn1[C@@H]1O[C@H](CO)[C@@H](O)[C@H]1O [Zebularine] + CC(=O)Nc1cccc(-n2c(=O)n(C3CC3)c(=O)c3c(Nc4ccc(I)cc4F)n(C)c(=O)c(C)c32)c1 [Trametinib] (partner 0.02 µM)
In short: as §1

Zebularine + Foretinib = compound: O=c1ncccn1[C@@H]1O[C@H](CO)[C@@H](O)[C@H]1O [Zebularine] + COc1cc2c(Oc3ccc(NC(=O)C4(C(=O)Nc5ccc(F)cc5)CC4)cc3F)ccnc2cc1OCCCN1CCOCC1 [Foretinib] (partner 0.25 µM)
In short: as §1

Zebularine + Pictilisib = compound: O=c1ncccn1[C@@H]1O[C@H](CO)[C@@H](O)[C@H]1O [Zebularine] + CS(=O)(=O)N1CCN(Cc2cc3nc(-c4cccc5[nH]ncc45)nc(N4CCOCC4)c3s2)CC1 [Pictilisib] (partner 1 µM)
In short: as §1

Cell Line	relative viability (BI-D1870 + Dasatinib; first compound 0.04 µM)	relative viability (BI-D1870 + Dasatinib; first compound 0.1265 µM)	relative viability (BI-D1870 + Dasatinib; first compound 0.4 µM)	relative viability (BI-D1870 + Dasatinib; first compound 1.265 µM)	relative viability (BI-D1870 + Dasatinib; first compound 4 µM)	relative viability (Zebularine + Trametinib; first compound 1 µM)	relative viability (Zebularine + Trametinib; first compound 3.162 µM)	relative viability (Zebularine + Trametinib; first compound 10 µM)	relative viability (Zebularine + Trametinib; first compound 31.62 µM)	relative viability (Zebularine + Trametinib; first compound 100 µM)	relative viability (Zebularine + Foretinib; first compound 1 µM)	relative viability (Zebularine + Foretinib; first compound 3.162 µM)	relative viability (Zebularine + Foretinib; first compound 10 µM)	relative viability (Zebularine + Foretinib; first compound 31.62 µM)	relative viability (Zebularine + Foretinib; first compound 100 µM)	relative viability (Zebularine + Pictilisib; first compound 1 µM)	relative viability (Zebularine + Pictilisib; first compound 3.162 µM)	relative viability (Zebularine + Pictilisib; first compound 31.62 µM)	relative viability (Zebularine + Pictilisib; first compound 100 µM)	relative viability (Zebularine + Pictilisib; first compound 10 µM)
NCI-H1437	0.46	0.343	0.413	0.394	0.285	0.545	0.532	0.419	0.619	0.661	1.33	1.29	1.04	1.21	0.653	0.559	0.453	0.451	0.287	
COR-L23	0.58	0.414	0.504	0.565	0.434	0.642	0.602	0.463	0.575	0.241	1.11	0.98	0.621	0.513	0.157	0.926	0.776	0.287	0.24	0.291
ABC-1	0.598	0.53		0.577	0.409						1.16	1.11	0.681	0.783	0.473	0.62	0.326	0.564	0.439	0.633
NCI-H522	0.91	0.874	0.777	0.99	0.926	0.815	0.704	0.667	0.758	0.723										
NCI-H838	0.342	0.244	0.314	0.274	0.243	0.58	0.537	0.415	0.437	0.231	1.08	1.03	0.705	0.698	0.322	0.463	0.457	0.51	0.303	0.422
SW 900	0.66	0.456	0.662	0.499	0.338	0.759	0.789		0.899	1.15	1.28	0.633	0.545	0.762	0.498					
A549											0.898	0.996	0.743	0.855	0.0887	0.626	0.482	0.619	0.209	
A-427	0.775	0.593	0.706	0.756	0.793	0.763	0.746	0.698	0.448	0.267	1.22	0.965	0.579	0.468	0.232	0.835	0.783	0.433	0.191	0.686
NCI-H1792	0.841	0.68	0.599	0.829	0.645	0.472	0.351	0.187	0.176	0.182						0.288	0.267	0.184	0.158	0.343
LCLC-97TM1	0.932	0.833	0.947	0.899	0.709	0.223	0.209	0.128	0.188	0.174	0.929	1	0.704	0.27	0.212	0.184	0.081	0.124	0.104	0.138

Source: the supplement of paper PMC10307832
